Measurements from patent US11554133B2, “Bile acid synthesis promoter, composition for promoting bile acid synthesis and food composition for promoting bile acid synthesis” (KRACIE HOLDINGS, LTD., priority 2017, dated 2023).

Experiments:
[1] = system: total cholesterol in the liver; experiment: Measurement of total cholesterol in liver of db/db mice fed arctigenin diet; type: in vivo; settings: 0.2% arctigenin in purified diet for nine weeks, liver lipid extract
Description: Using 5-week-old male db/db mice (BKS.Cg−+Leprdb/+Leprdb/Jcl, purchased from CLEA Japan, Inc.) that were leptin receptor-deficient model, the experiments were started after one-week preliminary rearing. The animals were reared under the environment of 23.0±5° C. of temperature, 50.0±10% of humidity and 12 hours of light-dark cycle. The animal experiments were approved by animal care and use committee of Keio University and carried out based on animal experiment rules of Keio University. After preliminary rearing, mice were divided into two groups of (a) control group and (b) arctigenin administrated group (AG group) (each group n=8), and made AG group intake purified diet combined with arctigenin (>98.0%) 0.2% and purified diet (AIN-93G) for control group freely for nine weeks. After administration, 18-hour fasting was performed, and blood specimens were collected from abdominal vena cava under anesthesia, and the liver and the small intestine were sampled. Homogenate the liver obtained from each group and extracted total lipid using a lipid extraction kit (Lipid Extraction Kit (Chloroform-Free), Cell Biolabs, Inc.). A total cholesterol level was measured from lipid extract using cholesterol E-test Wako (Wako Pure Chemical Corporation). FIG. 2 is a graph showing the amount of total cholesterol in the liver (mg/dL) in control group and AG group. […]

[2] = general statement, no test described; cited from earlier work
[3] = system: FGF4R of the liver; experiment: Liver FGF4R mRNA expression by qPCR; type: in vivo; settings: db/db mice, 0.2% arctigenin diet nine weeks, qPCR vs 18S rRNA, Student's t-test
Description: (§1) Using 5-week-old male db/db mice (BKS.Cg−+Leprdb/+Leprdb/Jcl, purchased from CLEA Japan, Inc.) that were leptin receptor-deficient model, the experiments were started after one-week preliminary rearing. The animals were reared under the environment of 23.0±5° C. of temperature, 50.0±10% of humidity and 12 hours of light-dark cycle. The animal experiments were approved by animal care and use committee of Keio University and carried out based on animal experiment rules of Keio University.
(§2) After preliminary rearing, mice were divided into two groups of (a) control group and (b) arctigenin administrated group (AG group) (each group n=8), and made AG group intake purified diet combined with arctigenin (>98.0%) 0.2% and purified diet (AIN-93G) for control group freely for nine weeks. After administration, 18-hour fasting was performed, and blood specimens were collected from abdominal vena cava under anesthesia, and the liver and the small intestine were sampled.
(§3) After having performed extraction of total RNA from the obtained organs and cDNA synthesis on each group, the expression level of Cyp8b1, SHP, FXR and FGF4R of the liver which are the liver cholesterol metabolism-related genes and small intestinal FGF15 and SHP were compared by qPCR. As control, 18S rRNA was used. […]

[4] = system: Cyp8b1 of the liver; experiment: Liver Cyp8b1 mRNA expression by qPCR; type: in vivo; settings: db/db mice, 0.2% arctigenin diet nine weeks, qPCR vs 18S rRNA, Student's t-test
Description: as §1, §2, §3

[5] = system: small intestinal FGF15; experiment: Small intestinal FGF15 mRNA expression by qPCR; type: in vivo; settings: db/db mice, 0.2% arctigenin diet nine weeks, qPCR vs 18S rRNA
Description: as §1, §2, §3

[6] = system: bile acid in feces; experiment: Measurement of the amount of bile acid in feces (UPLC-MS/MS) of db/db mice fed arctigenin diet; type: in vivo; settings: 0.2% arctigenin in purified diet for nine weeks, pooled feces at end of administration
Description: as §1, §2
Feces were collected from the rearing cage of each group at the end of the administration period, and the amount of bile acid in feces was measured. 10 mg of dry powder of pooled feces was suspended in 0.2 mL of 90% ethanol and incubated at 65° C. for 1 hour, and the supernatant after centrifugation and the washing of the precipitates were collected together. […]

[7] = system: FXR of the liver; experiment: Liver FXR mRNA expression by qPCR; type: in vivo; settings: db/db mice, 0.2% arctigenin diet nine weeks, qPCR vs 18S rRNA, Student's t-test
Description: as §1, §2, §3

[8] = system: SHP of the liver; experiment: Liver SHP mRNA expression by qPCR; type: in vivo; settings: db/db mice, 0.2% arctigenin diet nine weeks, qPCR vs 18S rRNA, Student's t-test
Description: as §1, §2, §3

[9] = system: small intestinal SHP; experiment: Small intestinal SHP mRNA expression by qPCR; type: in vivo; settings: db/db mice, 0.2% arctigenin diet nine weeks, qPCR vs 18S rRNA
Description: as §1, §2, §3

In the case of `COc1cc(C[C@H]2C(=O)OC[C@@H]2Cc2ccc(OC)c(OC)c2)ccc1O` [arctigenin], the “amount of total cholesterol in the liver versus control group” value [1] is listed as “little amount”, the solubility in water [2] is listed as “water-insoluble” and the “relative mRNA expression level of FGF4R of the liver in comparison with control group” value [3] is listed as “significantly low”. The “relative mRNA expression level of Cyp8b1 of the liver in comparison with control group” value [4] was “significantly high”, the “relative mRNA expression level of small intestinal FGF15 in comparison with control group” value [5] was “low” and the “amount of total bile acid in feces in comparison with control group” value [6] was “large amount”. The “relative mRNA expression level of FXR of the liver in comparison with control group” value [7] was “significantly low”, the “relative mRNA expression level of SHP of the liver in comparison with control group” value [8] was “significantly low” and the “relative mRNA expression level of small intestinal SHP in comparison with control group” value [9] was “low”.
